Key:
[1] = target: MAP/microtubule affinity-regulating kinase 4 (Homo sapiens) (UniProt Q96L34); test: Inhibition of MARK4 conserved Lys1 (EVAIKIIDK) in human PBMC at 0.1 uM
[2] = target: Cyclin-dependent kinase 2 (Homo sapiens) (UniProt P24941); test: Inhibition of CDK2 labeling at conserved Lys1 (LTGEVVALKK) in human PBMC at 1 uM
[3] = target: Tyrosine-protein kinase Lyn (Homo sapiens) (UniProt P07948); test: Inhibition of LYN activation Loop (EGAKFPIKWTAPEAINFGCFTIK) in human PBMC at 0.1 uM
[4] = target: Ribosomal protein S6 kinase alpha-5 (Homo sapiens) (UniProt O75582); test: Inhibition of MSK1 domain1 conserved Lys2 (DIKLENILLDSNGHVVLTDFGLSK) in human PBMC at 1 uM
[5] = target: Interleukin-1 receptor-associated kinase 1 (Homo sapiens) (UniProt P51617); test: Inhibition of IRAK1 conserved Lys2 (AIQFLHQDSPSLIHGDIKSSNVLLDER) in human PBMC at 1 uM
[6] = target: Inhibitor of nuclear factor kappa-B kinase subunit alpha (Homo sapiens) (UniProt O15111); test: Inhibition of IKKa conserved Lys2 (DLKPENIVLQDVGGK) in human PBMC at 1 uM
[7] = target: Mitogen-activated protein kinase kinase kinase 3 (Homo sapiens) (UniProt Q99759); test: Inhibition of MAP3K3 conserved Lys2 (DIKGANILR) in human PBMC at 0.1 uM
[8] = target: Tyrosine-protein kinase Yes (Homo sapiens) (UniProt P07947); test: Inhibition of YES activation Loop (QGAKFPIKWTAPEAALYGR) in human PBMC at 0.1 uM
[9] = target: 5'-AMP-activated protein kinase catalytic subunit alpha-1 (Homo sapiens) (UniProt Q13131); test: Inhibition of AMPKa1 labeling at conserved Lys2 (DLKPENVLLDAHMNAK) in human PBMC at 1 uM
[10] = target: T1, Serine/threonine-protein kinase LATS1 (Homo sapiens) (UniProt O95835); test: Inhibition of LATS1 conserved Lys1 (ALYATKTLR) in human PBMC at 0.1 uM
T1 sequence (whole entry): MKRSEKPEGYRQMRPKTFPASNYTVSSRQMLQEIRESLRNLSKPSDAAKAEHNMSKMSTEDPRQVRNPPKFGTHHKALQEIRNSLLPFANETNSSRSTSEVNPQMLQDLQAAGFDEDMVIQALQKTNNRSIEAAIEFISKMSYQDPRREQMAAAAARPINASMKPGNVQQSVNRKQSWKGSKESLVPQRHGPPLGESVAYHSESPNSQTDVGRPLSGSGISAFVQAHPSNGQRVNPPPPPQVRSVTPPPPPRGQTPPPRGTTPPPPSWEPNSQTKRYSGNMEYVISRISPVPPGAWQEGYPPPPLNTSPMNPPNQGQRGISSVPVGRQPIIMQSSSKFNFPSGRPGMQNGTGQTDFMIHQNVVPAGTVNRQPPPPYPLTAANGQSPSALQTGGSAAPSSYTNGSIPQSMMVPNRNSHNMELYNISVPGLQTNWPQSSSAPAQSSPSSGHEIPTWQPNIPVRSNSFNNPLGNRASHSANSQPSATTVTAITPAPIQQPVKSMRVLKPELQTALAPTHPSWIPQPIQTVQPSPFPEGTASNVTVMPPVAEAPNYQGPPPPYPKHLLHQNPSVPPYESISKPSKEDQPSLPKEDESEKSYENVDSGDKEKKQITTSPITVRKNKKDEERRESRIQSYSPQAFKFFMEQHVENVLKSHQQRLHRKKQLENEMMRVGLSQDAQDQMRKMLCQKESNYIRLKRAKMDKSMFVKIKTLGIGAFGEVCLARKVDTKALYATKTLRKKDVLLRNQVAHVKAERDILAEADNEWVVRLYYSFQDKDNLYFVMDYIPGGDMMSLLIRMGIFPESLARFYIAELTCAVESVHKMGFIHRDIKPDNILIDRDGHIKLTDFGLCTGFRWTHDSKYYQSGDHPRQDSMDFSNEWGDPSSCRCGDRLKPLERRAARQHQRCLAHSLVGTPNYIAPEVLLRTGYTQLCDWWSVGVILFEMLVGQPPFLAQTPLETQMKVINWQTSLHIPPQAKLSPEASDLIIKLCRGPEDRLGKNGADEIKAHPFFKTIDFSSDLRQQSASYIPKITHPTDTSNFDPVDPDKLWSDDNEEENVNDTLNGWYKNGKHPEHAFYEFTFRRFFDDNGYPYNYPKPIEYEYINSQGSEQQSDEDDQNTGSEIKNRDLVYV

[11] = target: Serine/threonine-protein kinase TBK1 (Homo sapiens) (UniProt Q9UHD2); test: Inhibition of TBK1 conserved Lys2 (DIKPGNIMR) in human PBMC at 0.1 uM
[12] = target: STE20-like serine/threonine-protein kinase (Homo sapiens) (UniProt Q9H2G2); test: Inhibition of SLK conserved Lys2 (DLKAGNILFTLDGDIK) in human PBMC at 1 uM
[13] = target: Tyrosine-protein kinase Fyn (Homo sapiens) (UniProt P06241); test: Inhibition of FYN activation Loop (QGAKFPIKWTAPEAALYGR) in human PBMC at 0.1 uM
[14] = target: Tyrosine-protein kinase BTK (Homo sapiens) (UniProt Q06187); test: Inhibition of BTK labeling at activation Loop (YVLDDEYTSSVGSKFPVR) in human PBMC at 0.1 uM
[15] = target: 5'-AMP-activated protein kinase catalytic subunit alpha-1 (Homo sapiens) (UniProt Q13131); test: Inhibition of AMPKa1 labeling at conserved Lys1 (VAVKILNR) in human PBMC at 0.1 uM
[16] = target: Mitogen-activated protein kinase 13 (Homo sapiens) (UniProt O15264); test: Inhibition of p38d conserved Lys2 (DLKPGNLAVNEDCELK) in human PBMC at 1 uM
[17] = target: Phosphatidylinositol 4,5-bisphosphate 3-kinase catalytic subunit beta isoform (Homo sapiens) (UniProt P42338); test: Inhibition of PIK3CB ATP binding site (VFGEDSVGVIFKNGDDLRQDMLTLQMLR) in human PBMC at 1 uM

5'-AMP-activated protein kinase catalytic subunit alpha-1 (Homo sapiens), sequence (Q13131 whole entry, looked up): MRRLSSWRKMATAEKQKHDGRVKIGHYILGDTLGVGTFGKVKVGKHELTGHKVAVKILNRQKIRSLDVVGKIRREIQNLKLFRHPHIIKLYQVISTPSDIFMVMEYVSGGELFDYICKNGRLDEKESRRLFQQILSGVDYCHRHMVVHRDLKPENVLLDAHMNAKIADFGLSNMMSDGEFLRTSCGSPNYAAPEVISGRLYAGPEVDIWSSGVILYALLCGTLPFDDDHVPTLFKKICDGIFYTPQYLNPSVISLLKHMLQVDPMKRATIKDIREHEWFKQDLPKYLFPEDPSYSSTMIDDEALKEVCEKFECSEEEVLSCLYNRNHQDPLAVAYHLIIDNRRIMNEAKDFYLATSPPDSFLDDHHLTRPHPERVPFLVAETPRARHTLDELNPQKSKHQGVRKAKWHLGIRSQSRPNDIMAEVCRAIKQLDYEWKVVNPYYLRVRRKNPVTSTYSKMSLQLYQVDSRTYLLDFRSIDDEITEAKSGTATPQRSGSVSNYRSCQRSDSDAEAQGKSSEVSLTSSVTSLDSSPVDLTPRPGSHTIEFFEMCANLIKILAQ
Tyrosine-protein kinase Lyn (Homo sapiens), sequence (P07948 2-512 limits assumed): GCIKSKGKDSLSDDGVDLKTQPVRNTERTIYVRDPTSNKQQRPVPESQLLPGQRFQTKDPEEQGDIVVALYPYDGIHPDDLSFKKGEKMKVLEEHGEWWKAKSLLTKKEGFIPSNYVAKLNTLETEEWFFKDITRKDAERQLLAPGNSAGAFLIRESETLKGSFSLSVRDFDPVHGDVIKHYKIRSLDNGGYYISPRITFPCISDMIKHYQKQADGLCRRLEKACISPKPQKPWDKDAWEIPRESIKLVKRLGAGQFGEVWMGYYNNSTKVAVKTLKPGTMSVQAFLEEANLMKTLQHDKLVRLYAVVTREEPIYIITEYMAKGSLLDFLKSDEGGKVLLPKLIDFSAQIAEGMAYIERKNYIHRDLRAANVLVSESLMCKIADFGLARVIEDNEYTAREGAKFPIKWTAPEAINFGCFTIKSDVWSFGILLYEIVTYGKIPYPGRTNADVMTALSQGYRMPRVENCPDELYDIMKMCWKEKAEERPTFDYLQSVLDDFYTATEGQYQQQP
Mitogen-activated protein kinase kinase kinase 3 (Homo sapiens), sequence (Q99759 whole entry): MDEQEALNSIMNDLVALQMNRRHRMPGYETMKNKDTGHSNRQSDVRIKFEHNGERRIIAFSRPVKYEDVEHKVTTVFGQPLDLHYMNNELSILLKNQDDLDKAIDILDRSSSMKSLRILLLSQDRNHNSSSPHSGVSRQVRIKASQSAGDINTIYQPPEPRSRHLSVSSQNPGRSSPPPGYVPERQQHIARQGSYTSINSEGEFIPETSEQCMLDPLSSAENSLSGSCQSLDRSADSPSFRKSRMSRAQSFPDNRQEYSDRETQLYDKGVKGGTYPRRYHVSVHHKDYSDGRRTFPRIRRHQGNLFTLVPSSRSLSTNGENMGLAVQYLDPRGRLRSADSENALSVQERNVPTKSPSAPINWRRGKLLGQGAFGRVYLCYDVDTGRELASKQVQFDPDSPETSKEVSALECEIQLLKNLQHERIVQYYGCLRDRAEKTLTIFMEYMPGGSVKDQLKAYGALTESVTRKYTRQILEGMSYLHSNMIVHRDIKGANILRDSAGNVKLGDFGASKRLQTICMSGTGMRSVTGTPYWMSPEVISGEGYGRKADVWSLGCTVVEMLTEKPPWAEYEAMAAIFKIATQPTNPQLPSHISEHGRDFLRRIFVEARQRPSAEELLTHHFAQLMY
Tyrosine-protein kinase Yes (Homo sapiens), sequence (P07947 2-543 limits assumed): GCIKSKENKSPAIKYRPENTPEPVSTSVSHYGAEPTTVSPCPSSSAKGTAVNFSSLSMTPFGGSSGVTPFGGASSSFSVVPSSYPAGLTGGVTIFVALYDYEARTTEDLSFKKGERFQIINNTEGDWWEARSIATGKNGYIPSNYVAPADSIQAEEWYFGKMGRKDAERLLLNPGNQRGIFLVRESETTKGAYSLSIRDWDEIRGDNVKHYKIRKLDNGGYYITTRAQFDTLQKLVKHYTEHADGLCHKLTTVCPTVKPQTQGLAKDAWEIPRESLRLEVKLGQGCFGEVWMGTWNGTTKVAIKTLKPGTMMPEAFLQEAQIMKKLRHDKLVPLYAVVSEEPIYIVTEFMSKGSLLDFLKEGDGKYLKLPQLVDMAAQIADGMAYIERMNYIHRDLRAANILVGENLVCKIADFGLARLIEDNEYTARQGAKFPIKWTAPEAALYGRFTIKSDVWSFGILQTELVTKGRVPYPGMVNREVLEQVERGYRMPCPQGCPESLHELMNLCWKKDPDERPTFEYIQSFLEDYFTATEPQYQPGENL
STE20-like serine/threonine-protein kinase (Homo sapiens), sequence (Q9H2G2 whole entry, looked up): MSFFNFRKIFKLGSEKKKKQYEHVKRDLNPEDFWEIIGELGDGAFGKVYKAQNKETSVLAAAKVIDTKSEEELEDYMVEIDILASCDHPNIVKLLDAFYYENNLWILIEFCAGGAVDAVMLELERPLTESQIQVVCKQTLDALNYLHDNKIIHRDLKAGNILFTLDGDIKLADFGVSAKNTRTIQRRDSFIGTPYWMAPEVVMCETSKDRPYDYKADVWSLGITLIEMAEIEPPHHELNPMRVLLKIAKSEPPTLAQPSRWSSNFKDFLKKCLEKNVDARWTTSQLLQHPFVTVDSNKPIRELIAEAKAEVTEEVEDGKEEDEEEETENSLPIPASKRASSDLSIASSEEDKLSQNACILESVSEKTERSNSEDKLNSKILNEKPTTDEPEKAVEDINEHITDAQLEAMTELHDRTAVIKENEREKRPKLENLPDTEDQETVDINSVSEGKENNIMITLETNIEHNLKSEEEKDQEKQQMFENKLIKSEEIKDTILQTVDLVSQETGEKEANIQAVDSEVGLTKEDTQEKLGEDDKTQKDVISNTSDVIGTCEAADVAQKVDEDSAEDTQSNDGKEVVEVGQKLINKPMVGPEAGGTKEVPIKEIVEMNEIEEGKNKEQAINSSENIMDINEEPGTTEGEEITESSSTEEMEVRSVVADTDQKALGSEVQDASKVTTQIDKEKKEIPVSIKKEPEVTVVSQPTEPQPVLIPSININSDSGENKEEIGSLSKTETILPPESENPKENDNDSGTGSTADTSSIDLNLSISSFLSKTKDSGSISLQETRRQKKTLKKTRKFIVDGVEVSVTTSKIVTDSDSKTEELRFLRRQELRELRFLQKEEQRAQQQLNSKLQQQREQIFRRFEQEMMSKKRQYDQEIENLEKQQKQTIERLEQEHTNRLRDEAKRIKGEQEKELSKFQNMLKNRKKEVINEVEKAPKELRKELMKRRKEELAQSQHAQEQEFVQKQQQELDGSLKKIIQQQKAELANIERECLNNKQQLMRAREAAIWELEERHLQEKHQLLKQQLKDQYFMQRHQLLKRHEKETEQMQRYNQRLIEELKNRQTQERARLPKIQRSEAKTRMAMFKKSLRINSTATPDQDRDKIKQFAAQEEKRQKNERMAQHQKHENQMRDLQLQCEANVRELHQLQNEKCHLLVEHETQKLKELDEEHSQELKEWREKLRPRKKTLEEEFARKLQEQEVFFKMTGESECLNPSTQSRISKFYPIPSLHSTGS
Mitogen-activated protein kinase 13 (Homo sapiens), sequence (O15264 whole entry, canonical isoform): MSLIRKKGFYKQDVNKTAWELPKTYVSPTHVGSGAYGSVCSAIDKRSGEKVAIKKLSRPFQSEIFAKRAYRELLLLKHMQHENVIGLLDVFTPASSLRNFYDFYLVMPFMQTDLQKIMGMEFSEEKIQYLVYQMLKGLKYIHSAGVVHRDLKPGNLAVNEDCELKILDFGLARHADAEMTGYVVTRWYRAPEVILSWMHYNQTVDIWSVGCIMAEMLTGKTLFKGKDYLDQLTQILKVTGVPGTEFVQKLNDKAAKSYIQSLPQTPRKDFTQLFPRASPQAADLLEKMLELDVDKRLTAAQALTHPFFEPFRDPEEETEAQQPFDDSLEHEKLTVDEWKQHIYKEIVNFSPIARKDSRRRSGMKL
Serine/threonine-protein kinase TBK1 (Homo sapiens), sequence (Q9UHD2 whole entry): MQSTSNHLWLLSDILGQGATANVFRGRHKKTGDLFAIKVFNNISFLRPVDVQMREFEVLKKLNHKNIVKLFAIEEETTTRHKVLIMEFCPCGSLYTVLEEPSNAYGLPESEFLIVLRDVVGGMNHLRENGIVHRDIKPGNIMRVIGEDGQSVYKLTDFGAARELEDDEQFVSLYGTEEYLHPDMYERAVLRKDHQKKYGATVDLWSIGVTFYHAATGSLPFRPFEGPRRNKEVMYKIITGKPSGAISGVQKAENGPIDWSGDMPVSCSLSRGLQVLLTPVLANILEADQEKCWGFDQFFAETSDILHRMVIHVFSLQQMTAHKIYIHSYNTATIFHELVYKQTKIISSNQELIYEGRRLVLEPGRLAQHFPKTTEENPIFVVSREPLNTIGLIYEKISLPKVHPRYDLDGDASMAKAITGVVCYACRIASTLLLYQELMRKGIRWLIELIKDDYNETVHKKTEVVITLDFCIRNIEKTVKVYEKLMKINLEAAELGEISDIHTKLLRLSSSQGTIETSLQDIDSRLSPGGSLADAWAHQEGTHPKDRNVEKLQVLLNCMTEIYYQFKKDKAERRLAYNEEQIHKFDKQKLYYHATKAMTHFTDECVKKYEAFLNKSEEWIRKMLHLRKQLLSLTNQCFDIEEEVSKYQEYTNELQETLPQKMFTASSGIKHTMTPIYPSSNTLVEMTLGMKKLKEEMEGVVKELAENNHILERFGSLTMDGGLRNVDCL

CC(C)n1cc(-c2cc(-c3ccc(CN4CCOCC4)cc3)cnc2N)nn1
inhibition [1]: -6.7% | inhibition [2]: 11.3% | inhibition [3]: 6.1% | inhibition [4]: 9.8% | inhibition [5]: 17.3% | inhibition [6]: -1.2% | inhibition [7]: 23.2% | inhibition [8]: -4.4% | inhibition [9]: 17.5% | inhibition [10]: 23.1% | inhibition [11]: 21.7% | inhibition [12]: 30.5% | inhibition [13]: -4.4% | inhibition [14]: 14.2% | inhibition [15]: 7.7% | inhibition [16]: 14% | inhibition [17]: 21.2%

From ChEMBL document CHEMBL4043168, “The design and SAR of a novel series of 2-aminopyridine based LRRK2 inhibitors” (Bioorg Med Chem Lett, 2017)
